From patent US20050032873A1, “3-Amino chroman and 2-amino tetralin derivatives” (Wyeth, priority 2003, published 2005)
Where two headings read alike, the source gives them in different places.

How the values were obtained:
serotonin transporter = target: T1, serotonin transporter (Rattus norvegicus, UniProt P31652); test: 5-HT transporter affinity: displacement of 3H-paroxetine from male rat cortical membranes; type: binding; details: displacement of 3H-paroxetine, male rat cortical membranes
T1 construct: displace ^3H-paroxetine from male rat cortical membranes; from tissue; host or cells: male rat cortical membranes

5-HT1A receptor [1] = target: T2, 5-HT1A receptor (Homo sapiens, UniProt P08908); test: cAMP accumulation assay, 5-HT1A function; type: cell-based; details: for EC50: cells marked EC50 (agonist); for IC50: cells marked IC50 (antagonist)
T2 sequence (P08908 1-422): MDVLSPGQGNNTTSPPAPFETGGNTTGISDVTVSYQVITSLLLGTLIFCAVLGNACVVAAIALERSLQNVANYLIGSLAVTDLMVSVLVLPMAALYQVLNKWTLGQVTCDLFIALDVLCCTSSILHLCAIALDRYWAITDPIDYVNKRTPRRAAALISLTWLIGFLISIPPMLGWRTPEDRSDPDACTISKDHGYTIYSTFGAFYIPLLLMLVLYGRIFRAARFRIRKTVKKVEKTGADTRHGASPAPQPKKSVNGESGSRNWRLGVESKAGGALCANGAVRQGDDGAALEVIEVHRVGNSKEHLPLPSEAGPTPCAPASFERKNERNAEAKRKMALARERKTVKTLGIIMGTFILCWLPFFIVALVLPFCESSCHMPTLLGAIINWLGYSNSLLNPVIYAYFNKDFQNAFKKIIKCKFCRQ

5-HT1A receptor [2] = target: T2, 5-HT1A receptor; test: 5-HT1A receptor affinity: displacement of [3H] 8-OH-DPAT; type: binding; set-up: expressed in transfected cells; details: displacement of [3H] 8-OH-DPAT, CHO cells stably transfected with human 5-HT1A receptors
[3] = target: T3, cloned human 5-HT1A receptors (Homo sapiens, UniProt P08908); test: 35S-GTPγS binding assay, 5-HT1A function; type: biochemical; details: for EC50: agonist potency; for IC50: antagonist potency, reversal of 8-OH-DPAT
T3 construct: expressed in transfected cells
T3 sequence (P08908 1-422): T2 sequence (P08908 1-422)

[4] = read-out: 5-HT Transporter Affinity Ki
[5] = in brackets after EC50 or IC50, read-out: 5-HT1A Function cAMP (Emax)
[6] = read-out: 5-HT1A Receptor Affinity Ki
[7] = maximum stimulatory effect, in brackets after EC50, read-out: 5-HT1A Function GTPγS (Emax)
[8] = read-out: 5-HT1A Function cAMP IC50
[9] = read-out: 5-HT1A Function GTPγS IC50
[10] = maximum inhibitory effect, in brackets after IC50, read-out: 5-HT1A Function GTPγS (Imax)

T1 sequence (P31652 whole entry): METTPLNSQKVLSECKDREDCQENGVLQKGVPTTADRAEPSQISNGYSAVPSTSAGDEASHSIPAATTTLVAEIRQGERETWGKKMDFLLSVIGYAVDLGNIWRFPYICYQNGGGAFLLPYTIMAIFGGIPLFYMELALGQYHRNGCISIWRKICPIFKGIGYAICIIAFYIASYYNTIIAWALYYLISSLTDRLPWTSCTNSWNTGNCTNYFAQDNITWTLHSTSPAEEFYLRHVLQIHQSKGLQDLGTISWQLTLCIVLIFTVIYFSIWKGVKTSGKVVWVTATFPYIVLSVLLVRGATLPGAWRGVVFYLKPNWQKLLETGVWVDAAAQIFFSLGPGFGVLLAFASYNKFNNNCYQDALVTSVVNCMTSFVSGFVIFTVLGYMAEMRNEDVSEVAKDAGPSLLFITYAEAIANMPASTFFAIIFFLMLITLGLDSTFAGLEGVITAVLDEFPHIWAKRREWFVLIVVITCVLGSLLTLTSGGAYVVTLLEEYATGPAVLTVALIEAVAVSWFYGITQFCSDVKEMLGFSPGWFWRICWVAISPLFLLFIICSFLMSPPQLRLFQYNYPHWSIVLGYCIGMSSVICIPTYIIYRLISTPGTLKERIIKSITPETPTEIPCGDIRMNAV

COC(=O)c1ccc(F)c2c1C[C@H](NCCCCc1c[nH]c3ccc(F)cc13)CO2 [Compound 57a, Methyl (3S)-8-fluoro-3-{[4-(5-fluoro-1H-indol-3-yl)butyl]amino}chromane-5-carboxylate]
Ki (serotonin transporter; [4]): 4.21 nM
EC50 (5-HT1A receptor [1]): 337 nM
Emax (5-HT1A receptor [1]; [5]): 81%
Ki (5-HT1A receptor [2]; [6]): 113 nM
EC50 [3]: 1750 nM
Emax [3, 7]: 96%

COC(=O)c1ccc(F)c2c1C[C@@H](NCCCCc1c[nH]c3ccc(F)cc13)CO2 [Compound 57b, methyl (3R)-8-fluoro-3-{[4-(5-fluoro-1H-indol-3-yl)butyl]amino}chromane-5-carboxylate]
Ki (serotonin transporter; [4]): 12.2 nM
EC50 (5-HT1A receptor [1]): 180 nM
Emax (5-HT1A receptor [1]; [5]): 93%
Ki (5-HT1A receptor [2]; [6]): 19.4 nM
EC50 [3]: 641 nM
Emax [3, 7]: 100%

CNC(=O)c1ccc(F)c2c1CC(N(CCCc1c[nH]c3ccc(F)cc13)C1CCC1)CO2 (stereo not shown) [Compound 59, 3-{cyclobutyl[3-(5-fluoro-1H-indol-3-yl)propyl]amino}-8-fluoro-N-methylchromane-5-carboxamide]
Ki (serotonin transporter; [4]): 5.05 nM
IC50 (5-HT1A receptor [1]; [8]): 166 nM
Emax (5-HT1A receptor [1]; [5]): 0%
Ki (5-HT1A receptor [2]; [6]): 5.35 nM
IC50 [3, 9]: 812 nM
Emax [3, 10]: 100%

CCNC(=O)c1ccc(F)c2c1CC(N(CCCc1c[nH]c3ccc(F)cc13)C1CCC1)CO2 (stereo not shown) [Compound 60, 3-{cyclobutyl[3-(5-fluoro-1H-indol-3-yl)propyl]amino}-N-ethyl-8-fluorochromane-5-carboxamide]
Ki (serotonin transporter; [4]): 4.86 nM
IC50 (5-HT1A receptor [1]; [8]): 116 nM
Emax (5-HT1A receptor [1]; [5]): 0%
Ki (5-HT1A receptor [2]; [6]): 17.8 nM
IC50 [3, 9]: 1400 nM
Emax [3, 10]: 100%

CCCNC(=O)c1ccc(F)c2c1CC(N(CCCc1c[nH]c3ccc(F)cc13)C1CCC1)CO2 (stereo not shown) [Compound 61, 3-{cyclobutyl[3-(5-fluoro-1H-indol-3-yl)propyl]amino}-8-fluoro-N-propylchromane-5-carboxamide]
Ki (serotonin transporter; [4]): 2.4 nM
IC50 (5-HT1A receptor [1]; [8]): 593 nM
Emax (5-HT1A receptor [1]; read-out: 5-HT1A Function cAMP (Emax), in brackets after EC50 or IC50): 0%
Ki (5-HT1A receptor [2]; [6]): 195 nM
IC50 [3, 9]: 800 nM

CC(C)NC(=O)c1ccc(F)c2c1CC(N(CCCc1c[nH]c3ccc(F)cc13)C1CCC1)CO2 (stereo not shown) [Compound 63, 3-{cyclobutyl[3-(5-fluoro-1H-indol-3-yl)propyl]amino}-8-fluoro-N-isopropylchromane-5-carboxamide]
Ki (serotonin transporter; [4]): 3.56 nM
IC50 (5-HT1A receptor [1]; [8]): 449 nM
Emax (5-HT1A receptor [1]; [5]): 0%
Ki (5-HT1A receptor [2]; [6]): 46.1 nM
IC50 [3, 9]: 2170 nM
Emax [3, 10]: 76%

O=C(NC1CC1)c1ccc(F)c2c1CC(N(CCCc1c[nH]c3ccc(F)cc13)C1CCC1)CO2 (stereo not shown) [Compound 64, 3-{cyclobutyl[3-(5-fluoro-1H-indol-3-yl)propyl]amino}-N-cyclopropyl-8-fluorochromane-5-carboxamide]
Ki (serotonin transporter; [4]): 4.89 nM
IC50 (5-HT1A receptor [1]; [8]): 288 nM
Emax (5-HT1A receptor [1]; [5]): 0%
Ki (5-HT1A receptor [2]; [6]): 19.2 nM
IC50 [3, 9]: 395 nM
Emax [3, 10]: 90%

O=C(NC1CCC1)c1ccc(F)c2c1CC(N(CCCc1c[nH]c3ccc(F)cc13)C1CCC1)CO2 (stereo not shown) [Compound 65, N-cyclobutyl-3-{cyclobutyl[3-(5-fluoro-1H-indol-3-yl)propyl]amino}-8-fluorochromane-5-carboxamide]
Ki (serotonin transporter; [4]): 3.98 nM
IC50 (5-HT1A receptor [1]; [8]): 358 nM
Emax (5-HT1A receptor [1]; [5]): 0%
Ki (5-HT1A receptor [2]; [6]): 214 nM
IC50 [3, 9]: 91.5 nM
Emax [3, 10]: 48%

CCCCN(CCCc1c[nH]c2ccc(F)cc12)C1COc2c(F)ccc(C(N)=O)c2C1 (stereo not shown) [Compound 72, 3-{butyl[3-(5-fluoro-1H-indol-3-yl)propyl]amino}-8-fluorochromane-5-carboxamide]
Ki (serotonin transporter; [4]): 52.5 nM
Emax (5-HT1A receptor [1]; [5]): 0%
Ki (5-HT1A receptor [2]; [6]): 38.8 nM
IC50 [3, 9]: 3250 nM
Emax [3, 10]: 43%

CN(C)C(=O)c1ccc(F)c2c1CC(N(CCCc1c[nH]c3ccc(F)cc13)C1CCC1)CO2 (stereo not shown) [Compound 73, 3-{cyclobutyl[3-(5-fluoro-1H-indol-3-yl)propyl]amino}-8-fluoro-N,N-dimethylchromane-5-carboxamide]
Ki (serotonin transporter; [4]): 28.8 nM
IC50 (5-HT1A receptor [1]; [8]): 155 nM
Emax (5-HT1A receptor [1]; [5]): 0%
Ki (5-HT1A receptor [2]; [6]): 372 nM
IC50 [3, 9]: 5730 nM
Emax [3, 10]: 40%

CCN(CCc1c[nH]c2ccc(F)cc12)C1COc2c(F)ccc(C(N)=O)c2C1 (stereo not shown) [Compound 76, 3-{ethyl[2-(5-fluoro-1H-indol-3-yl)ethyl]amino}-8-fluorochromane-5-carboxamide]
Ki (serotonin transporter; 5-HT Transporter Affinity Ki (nM)): 52 nM
IC50 (5-HT1A receptor [1]; 5-HT1A Function cAMP IC50 (nM)): 68.2 nM
Emax (5-HT1A receptor [1]; [5]): 0%
Ki (5-HT1A receptor [2]; 5-HT1A Receptor Affinity Ki (nM)): 31.3 nM
IC50 ([3]; 5-HT1A Function GTPγS IC50 (nM)): 470 nM
Emax [3, 10]: 68%

CCCN(CCc1c[nH]c2ccc(F)cc12)C1COc2c(F)ccc(C(N)=O)c2C1 (stereo not shown) [Compound 77, 8-fluoro-3-[[2-(5-fluoro-1H-indol-3-yl)ethyl](propyl)amino]chromane-5-carboxamide]
Ki (serotonin transporter; [4]): 60.5 nM
IC50 (5-HT1A receptor [1]; [8]): 68.3 nM
Emax (5-HT1A receptor [1]; [5]): 0%
Ki (5-HT1A receptor [2]; [6]): 18 nM
IC50 [3, 9]: 2570 nM
Emax [3, 10]: 100%

NC(=O)c1ccc(F)c2c1CC(N(CCc1c[nH]c3ccc(F)cc13)CC1CC1)CO2 (stereo not shown) [Compound 78, 3-{(cyclopropylmethyl)[2-(5-fluoro-1H-indol-3-yl)ethyl]amino}-8-fluorochromane-5-carboxamide]
Ki (serotonin transporter; [4]): 83 nM
IC50 (5-HT1A receptor [1]; [8]): 97.1 nM
Emax (5-HT1A receptor [1]; [5]): 0%
Ki (5-HT1A receptor [2]; [6]): 6.6 nM
IC50 [3, 9]: 384 nM
Emax [3, 10]: 100%

CCN(CCCCc1c[nH]c2ccc(F)cc12)C1COc2c(F)ccc(C(N)=O)c2C1 (stereo not shown) [Compound 80, 3-{ethyl[4-(5-fluoro-1H-indol-3-yl)butyl]amino}-8-fluorochromane-5-carboxamide]
Ki (serotonin transporter; [4]): 0.15 nM
IC50 (5-HT1A receptor [1]; [8]): 1370 nM
Emax (5-HT1A receptor [1]; [5]): 0%
Ki (5-HT1A receptor [2]; [6]): 312 nM
IC50 [3, 9]: 1000 nM
Emax [3, 10]: 100%

CCCN(CCCCc1c[nH]c2ccc(F)cc12)C1COc2c(F)ccc(C(N)=O)c2C1 (stereo not shown) [Compound 81, 8-fluoro-3-[[4-(5-fluoro-1H-indol-3-yl)butyl](propyl)amino]chromane-5-carboxamide]
Ki (serotonin transporter; [4]): 6.15 nM
IC50 (5-HT1A receptor [1]; [8]): 125 nM
Emax (5-HT1A receptor [1]; [5]): 0%
Ki (5-HT1A receptor [2]; [6]): 4.64 nM
IC50 [3, 9]: 775 nM
Emax [3, 10]: 100%

NC(=O)c1ccc(F)c2c1CC(N(CCCCc1c[nH]c3ccc(F)cc13)CC1CC1)CO2 (stereo not shown) [Compound 82, 3-{(cyclopropylmethyl)[4-(5-fluoro-1H-indol-3-yl)butyl]amino}-8-fluorochromane-5-carboxamide]
Ki (serotonin transporter; [4]): 3.51 nM
IC50 (5-HT1A receptor [1]; [8]): 51.1 nM
Emax (5-HT1A receptor [1]; [5]): 0%
Ki (5-HT1A receptor [2]; [6]): 1.64 nM
IC50 [3, 9]: 162 nM
Emax [3, 10]: 100%

NC(=O)c1ccc(F)c2c1CC(N(CCCCc1c[nH]c3ccc(F)cc13)C1CCC1)CO2 (stereo not shown) [Compound 83, 3-{cyclobutyl[4-(5-fluoro-1H-indol-3-yl)butyl]amino}-8-fluorochromane-5-carboxamide]
Ki (serotonin transporter; [4]): 14.6 nM
IC50 (5-HT1A receptor [1]; [8]): 23.6 nM
Emax (5-HT1A receptor [1]; [5]): 0%
Ki (5-HT1A receptor [2]; [6]): 4.8 nM
IC50 [3, 9]: 351 nM
Emax [3, 10]: 100%

NC(=O)c1ccc(F)c2c1C[C@@H](N(CCCCc1c[nH]c3ccc(F)cc13)C1CCC1)CO2 [Compound 83a, (3R)-3-{cyclobutyl[4-(5-fluoro-1H-indol-3-yl)butyl]amino}-8-fluorochromane-5-carboxamide]
Ki (serotonin transporter; [4]): 13.2 nM
IC50 (5-HT1A receptor [1]; [8]): 173 nM
Emax (5-HT1A receptor [1]; [5]): 0%
Ki (5-HT1A receptor [2]; [6]): 3.43 nM
IC50 [3, 9]: 505 nM
Emax [3, 10]: 100%
